Assay results as given in patent publication US20040062842A1, “Green soybeans whose color is prevented from discoloring” (priority 2002, published 2004).

Experiments:
[1] = Suppression of discoloration by immersing green soybeans in aqueous solutions of anti-oxidation materials; set-up: species or system green soybean; conditions: green soybeans immersed in aqueous solutions, permeation into tissues under depressurization
From the text: A test for suppressing discoloration of a green color was made by immersing green soybeans in aqueous solutions of various anti-oxidation materials, such as ascorbic acid, tocopherol and carotenoids, thus causing the anti-oxidation materials to permeate into tissues under depressurization and to capture radicals inducing decomposition of chlorophyll.

[2] = Suppression of discoloration of a chlorophyll/ethanol solution preserved under illumination of light; conditions: 10° C., 17 hours, 1600 Lux; for Suppression Effect (%): 0.01 M anti-oxidation material in chlorophyll/ethanol solution (25 μg/ml), absorbance at 640 nm, relative to control sample; for effect of retaining a green color against light: addition to chlorophyll/ethanol solution
Protocol: Next, to check the effect resulting when anti-oxidation materials permeated into tissues, particularly chloroplasts, of a living body, a test for suppressing discoloration of a green color was made by preparing a chlorophyll/ethanol solution including chlorophyll, dissolving each of various anti-oxidation materials in the solution, and preserving it under illumination of light. More specifically, 4 ml of the chlorophyll/ethanol solution was prepared by adding 25 μg of chlorophyll in 1 ml of ethanol, and each anti-oxidation material, i.e., 0.01 M of ascorbic acid (aqueous solution), 0.01 M of α-tochopherol (ethanol solution), and 0.01 M of β-carotene (ethanol solution), was dissolved in the chlorophyll/ethanol solution. After enclosing each test sample, the test sample was preserved at 10° C. for 17 hours under 1600 Lux. Then, a change in absorbance of the test sample at 640 nm between before and after the preservation was measured. A higher value of the absorbance at 640 nm means a larger amount of chlorophyll. In Table 1, “control sample” represents a sample in which water was added, and “suppression effect” represents a chlorophyll reduction rate of each test sample calculated on condition that a chlorophyll reduction rate of the control sample after the preservation under illumination of light was assumed to be 100.

Compound	effect of suppressing discoloration of a green color [1]	Suppression Effect (%) [2] [%]	effect of retaining a green color against light [2]
O=C1O[C@H]([C@@H](O)CO)C(O)=C1O [Ascorbic acid aqueous solution, ascorbic acid]	hardly confirmed	0	–
Cc1c(C)c2c(c(C)c1O)CCC(C)(CCCC(C)CCCC(C)CCCC(C)C)O2 (stereo not drawn) [α-Tochopherol/ethanol solution, α-tochopherol]	–	52.4	apparent effect of retaining a green color against light was confirmed
tocopherol	hardly confirmed	–	–
CC1=C(/C=C/C(C)=C/C=C/C(C)=C/C=C/C=C(C)/C=C/C=C(C)/C=C/C2=C(C)CCCC2(C)C)C(C)(C)CCC1 [β-Carotene/ethanol solution, β-carotene]	–	56.1	apparent effect of retaining a green color against light was confirmed
